# In patent EP4691485A1, “MUCOSAL ADJUVANT” (priority 2023, dated 2024):
# Legend:
# Assay type in all cases: in vivo, BALB/c mice
# [1] = system: Influenza virus HA protein antigen A/Guangdong-Maonan/SWL1536/2019(CNIC-1909)(H1N1); assay: ELISA of antigen-specific IgA and IgG, improved formulation with chondroitin sulfate sodium (Example 4); conditions: Fig. 7
# Protocol: For the nasal administration test, 7-week-old female BALB/c mice were used, with 8 mice per group. Influenza virus HA protein antigen A/Guangdong-Maonan/SWL1536/2019(CNIC-1909)(H1N1) (Research Foundation for Microbial Diseases of Osaka University) was used. Vaccine groups included HA 0.1 µg alone, or HA 0.1 µg with 0.1 µg of TY001 S-form as adjuvant, and groups with/without 0.01% chondroitin sulfate sodium as an additive.
# The vaccine solution was administered intranasally to mice at 5 µL per nostril (10 µL/mouse) twice, with a 3-week interval. Two weeks after the second administration (day 35), nasal lavage fluid and serum were collected, and antigen-specific IgA levels in nasal lavage fluid and IgG levels in serum were measured by ELISA.
# [2] = system: A/Singapore/GP1908/2015(IVR-180)(H1N1)pdm09; conditions: HA 0.1 µg alone or with 3 µg adjuvant, nasal, twice; for Serum HI antibody titers, Geometric Mean Titer (GMT): 3-week interval, serum day 38
# SARS-CoV-2 S protein = assay: ELISA of antigen-specific IgA and IgG after nasal vaccination with SARS-CoV-2 antigen (Example 3); conditions: 3 µg S protein alone or with 0.3 µg TY001 S-form
# [3] = system: influenza virus (A/Singapore/GP1908/2015(IVR-180)(H1N1)pdm09); conditions: HA 0.1 µg alone or with 3 µg adjuvant, twice, 3-week interval, sampled day 38, Fig. 1
# [4] = system: HA antigen (A/Singapore/GP1908/2015(IVR-180)(H1N1)pdm09); assay: ELISA of antigen-specific IgA and IgG after nasal vaccination (Example 1); conditions: HA 0.1 µg alone or with 3 µg adjuvant, twice; for antigen-specific IgA level in the nasal lavage fluid: day 38, 2^2-fold dilution, Fig. 2; for antigen-specific IgG level in serum: day 38, 2^12-fold dilution, Fig. 3
# [5] = system: Influenza virus HA protein antigen: A/Guangdong-Maonan/SWL1536/2019(CNIC-1909)(H1N1); assay: ELISA of antigen-specific IgA and IgG after vaccination and virus challenge (Example 5); conditions: twice, HA 0.1 µg alone or with TY001 S-form 0.01-0.3 µg and 0.01% chondroitin sulfate sodium
# Protocol: (§1) For the nasal administration test, 7-week-old female BALB/c mice (9-10 mice per group) were used. Influenza virus HA protein antigen: A/Guangdong-Maonan/SWL1536/2019(CNIC-1909)(H1N1) and influenza virus: A/Guangdong-Maonan/SWL1536/2019(CNIC-1909)(H1N1) (Osaka University Microbial Disease Research Institute) were used. The vaccine formulations included HA 0.1 µg alone, and a formulation containing HA 0.1 µg co-administered with TY001 S-form at doses of 0.01-0.3 µg, and 0.01% chondroitin sulfate sodium as an additive. Vaccine solutions were administered into the nasal cavity, 5 µL into each nostril (10 µL/mouse), twice at a 3-week interval. As a control, a group subcutaneously administered with HA 0.1 µg alone was set up. Two weeks after the second administration (day 35), viral fluid was administered at 2 µL into each nostril (1x10^5 TCID50/mouse). Three days later (day 38), nasal wash fluid and serum were collected. The viral titer in the nasal wash fluid, antigen-specific IgA in nasal wash fluid, and IgG in serum were measured by ELISA.
# [6] = system: influenza virus: A/Guangdong-Maonan/SWL1536/2019(CNIC-1909)(H1N1); assay: Infection protection test: viral titer in nasal wash fluid (Example 5)
# Protocol: as §1
# [7] = system: Influenza virus HA protein antigen: A/Guangdong-Maonan/SWL1536/2019(CNIC-1909)(H1N1); assay: Comparative test with various adjuvants: ELISA of antigen-specific IgA and IgG (Example 6); conditions: HA 0.1 µg + 1 µg TY001 S-form (0.01% chondroitin sulfate sodium), twice
# Protocol: For the nasal administration test, 8-week-old female BALB/c mice (6 mice per group) were used. Influenza virus HA protein antigen: A/Guangdong-Maonan/SWL1536/2019(CNIC-1909)(H1N1) (Osaka University Microbial Disease Research Institute) was used. Vaccine formulations included HA 0.1 µg alone, and those co-administered intranasally with 1 µg of TY001 S-form (formulation containing 0.01% chondroitin sulfate sodium as an additive), Cholera Toxin B subunit (CTB) (Fujifilm Wako Pure Chemical Corporation), CpG ODN (ODN 1826) (InvivoGen), or Polyinosinic-polycytidylic acid (Poly(I:C)) (InvivoGen). Each vaccine solution was administered into the nasal cavity, 5 µL into each nostril (10 µL/mouse), twice at a 3-week interval. A group subcutaneously administered with HA 0.1 µg + Alum 2 mg was also used. Two weeks after the second administration (day 35), nasal wash fluid, bronchoalveolar lavage fluid, and serum were collected. Antigen-specific IgA in nasal wash fluid and bronchoalveolar lavage fluid, and IgG in serum and bronchoalveolar lavage fluid were measured by ELISA.
# [8] = system: Influenza HA protein antigen (A/California/7/2009(H1N1)pdm); assay: ELISA of antigen-specific IgA and IgG after nasal vaccination with CL401, CL413 or CL531 (Example 2); conditions: 1 µg HA alone or with 0.662 nmol or 6.62 nmol test compound
# [9] = HA 0.1 µg + 0.1 µg TY001 S-form + 0.01% chondroitin sulfate sodium, compared with no additive
# [10] = HA 0.1 µg + 0.1 µg TY001 S-form, nasal, twice, 3-week interval, day 35
structure (smiles),measurement,setting,value
"CCCCCCCCCCCCCCCC(=O)OC[C@@H](CSC[C@H](N)C(=O)NCCCNCCCCNCCCNC(=O)CNC(=O)c1ccc(Cn2c(O)nc3c(N)nc(NCCCC)nc32)cc1)OC(=O)CCCCCCCCCCCCCCC [TY001 S-form, (20R,24S)-20-amino-1-(4-((6-amino-2-(butylamino)-8-hydroxy-9H-purin-9-yl)methyl)phenyl)-1,4,19-trioxo-22-thia-2,5,9,14,18-pentaazapentacosane-24,25-diyl dipalmitate]","antibody-inducing effect, IgA in nasal wash fluid",[1]; [9],stronger
same,"antibody-inducing effect, IgG in serum",[1]; [9],stronger
same,antigen-specific IgA in nasal wash fluid,[1]; [10],induced
same,antigen-specific IgG in serum,[1]; [10],induced
same,HI antibody titer in serum,[2],showed an increase
same,"Serum HI antibody titers, Geometric Mean Titer (GMT)",[2],85.7
same,antigen-specific IgA level in the nasal lavage fluid,"SARS-CoV-2 S protein; day 0 and 21, day 35, 2^3-fold dilution, Fig. 5",showed induction of antigen-specific IgA antibodies in the nasal cavity
same,antigen-specific IgG level in serum,"SARS-CoV-2 S protein; day 0 and 21, day 35, 2^8-fold dilution, Fig. 6",showed an increase in antigen-specific IgG antibodies
same,viral titer in the nasal lavage fluid,[3],showed suppression of viral infection
same,antigen-specific IgA level in the nasal lavage fluid,[4],showed induction of antigen-specific IgA antibodies in the nasal cavity
same,antigen-specific IgG level in serum,[4],showed an increase
same,antigen-specific IgG in serum,"[5]; nasal, day 38, Fig. 9",dose-dependent induction of nasal IgA and serum IgG
same,antigen-specific IgA in nasal wash fluid,"[5]; day 38, Fig. 9",dose-dependent induction of nasal IgA and serum IgG
same,viral titer in nasal wash fluid,"[6]; HA 0.1 µg + TY001 S-form 0.1 µg + 0.01% chondroitin sulfate sodium, Fig. 8",no virus detected in any individual
same,viral titer in nasal wash fluid,"[6]; HA 0.1 µg + TY001 S-form 0.3 µg + 0.01% chondroitin sulfate sodium, Fig. 8",no virus detected in any individual
same,viral titer in nasal wash fluid,"[6]; twice, HA 0.1 µg alone or with TY001 S-form 0.01-0.3 µg and 0.01% chondroitin sulfate sodium, virus 1x10^5 TCID50/mouse day 35, day 38, Fig. 8",dose-dependent inhibition of viral infection
same,antigen-specific IgA in bronchoalveolar lavage fluid,"[7]; nasal, day 35, Fig. 10",also induced
same,antigen-specific IgG in bronchoalveolar lavage fluid,"[7]; nasal, day 35, Fig. 10",also induced
same,"antibody-inducing ability (antigen-specific IgA in nasal wash fluid and bronchoalveolar lavage fluid, IgG in serum and bronchoalveolar lavage fluid)","[7]; compared with CTB, CpG ODN (ODN 1826), Poly(I:C) nasal and Alum 2 mg subcutaneous, day 35, Fig. 10",stronger antibody-inducing ability at a lower dose compared to any other adjuvant
CCCCCCCCCCCCCCCC(=O)OCC(CSC[C@H](N)C(=O)Nc1ccc(Cn2c(O)nc3c(N)nc(NCCCC)nc32)cc1)OC(=O)CCCCCCCCCCCCCCC (some centres unmarked) [CL401],antigen-specific IgG antibodies in plasma,"[8]; day 0 and day 14, day 27, rank order, Fig. 4 lower panel",CL413 > CL531 > CL401
same,antigen-specific IgA in nasal lavage fluid,"[8]; day 0 and day 14, day 28, rank order, Fig. 4 upper panel",CL413 > CL531 > CL401
"CCCCCCCCCCCCCCCC(=O)OC[C@H](CSC[C@H](N)C(=O)NCCCNCCCCNCCCNC(=O)CNC(=O)c1ccc(Cn2c(O)nc3c(N)nc(NCCCC)nc32)cc1)OC(=O)CCCCCCCCCCCCCCC [TY001 R-form, (20R,24R)-20-amino-1-(4-((6-amino-2-(butylamino)-8-hydroxy-9H-purin-9-yl)methyl)phenyl)-1,4,19-trioxo-22-thia-2,5,9,14,18-pentaazapentacosane-24,25-diyl dipalmitate]",HI antibody titer in serum,[2],showed an increase
same,"Serum HI antibody titers, Geometric Mean Titer (GMT)",[2],69.6
same,viral titer in the nasal lavage fluid,[3],showed suppression of viral infection
same,antigen-specific IgA level in the nasal lavage fluid,[4],showed induction of antigen-specific IgA antibodies in the nasal cavity
same,antigen-specific IgG level in serum,[4],showed an increase
